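The compound was tested at five concentrations on cells cultured in 96-well plates, with a 48-hour exposure period. GI50: concentration for 50% inhibition of growth. Definition used: TGI = concentration required for complete inhibition of growth.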
Key:
Assay in all cases: DTP human tumour cell line panel, 48 h
COLO 205 colon = tested on: COLO 205 colon
A549 NSCLC = tested on: A549 NSCLC
HCT-116 colon = tested on: HCT-116 colon
A498 renal = tested on: A498 renal
SR leukemia = tested on: SR leukemia
NCI-H23 lung = tested on: NCI-H23 lung
DU-145 prostate = tested on: DU-145 prostate
IGROV1 ovarian = tested on: IGROV1 ovarian
MDA-MB-231 breast = tested on: MDA-MB-231 breast
NCI/ADR-RES ovarian = tested on: NCI/ADR-RES ovarian
SF-539 CNS = tested on: SF-539 CNS
SK-MEL-28 melanoma = tested on: SK-MEL-28 melanoma
RXF 393 renal = tested on: RXF 393 renal
ACHN renal = tested on: ACHN renal
NCI-H460 lung = tested on: NCI-H460 lung
HL-60(TB) leukemia = tested on: HL-60(TB) leukemia
TK-10 renal = tested on: TK-10 renal
MOLT-4 leukemia = tested on: MOLT-4 leukemia
HCT-15 colon = tested on: HCT-15 colon
UO-31 renal = tested on: UO-31 renal
NCI-H226 lung = tested on: NCI-H226 lung
OVCAR-8 ovarian = tested on: OVCAR-8 ovarian
K-562 leukemia = tested on: K-562 leukemia
BT-549 breast = tested on: BT-549 breast
EKVX NSCLC = tested on: EKVX NSCLC
HOP-92 NSCLC = tested on: HOP-92 NSCLC
SK-MEL-5 melanoma = tested on: SK-MEL-5 melanoma
SW-620 colon = tested on: SW-620 colon
HCC-2998 colon = tested on: HCC-2998 colon
SK-OV-3 ovarian = tested on: SK-OV-3 ovarian
CAKI-1 renal = tested on: CAKI-1 renal
RPMI-8226 leukemia = tested on: RPMI-8226 leukemia
KM12 colon = tested on: KM12 colon
MALME-3M melanoma = tested on: MALME-3M melanoma
CCRF-CEM leukemia = tested on: CCRF-CEM leukemia
MDA-MB-435 = tested on: MDA-MB-435
LOX IMVI melanoma = tested on: LOX IMVI melanoma
SF-268 CNS = tested on: SF-268 CNS
UACC-257 melanoma = tested on: UACC-257 melanoma
UACC-62 melanoma = tested on: UACC-62 melanoma
MCF7 breast = tested on: MCF7 breast
PC-3 prostate = tested on: PC-3 prostate
T-47D breast = tested on: T-47D breast
U251 CNS = tested on: U251 CNS
786-0 renal = tested on: 786-0 renal
M14 melanoma = tested on: M14 melanoma
SNB-75 CNS = tested on: SNB-75 CNS
OVCAR-5 ovarian = tested on: OVCAR-5 ovarian
SN12C renal = tested on: SN12C renal
OVCAR-3 ovarian = tested on: OVCAR-3 ovarian
SF-295 CNS = tested on: SF-295 CNS
HS 578T breast = tested on: HS 578T breast
SNB-19 CNS = tested on: SNB-19 CNS
OVCAR-4 ovarian = tested on: OVCAR-4 ovarian
HT29 colon = tested on: HT29 colon
HOP-62 NSCLC = tested on: HOP-62 NSCLC
NCI-H522 lung = tested on: NCI-H522 lung

Compound: COc1ccc([C@@H]2[C@@H](O)C(=O)N2c2cc(OC)c(OC)c(OC)c2)cc1Cl
- GI50 (COLO 205 colon): < 15.6 nM
- TGI (COLO 205 colon): < 23.9 nM
- GI50 (A549 NSCLC): < 19.3 nM
- TGI (A549 NSCLC): > 100 µM
- GI50 (HCT-116 colon): < 14.9 nM
- TGI (HCT-116 colon): > 100 µM
- GI50 (A498 renal): 21.7 µM
- TGI (A498 renal): > 100 µM
- GI50 (SR leukemia): < 10.7 nM
- TGI (SR leukemia): > 100 µM
- GI50 (NCI-H23 lung): 35.3 nM
- TGI (NCI-H23 lung): > 100 µM
- GI50 (DU-145 prostate): < 19 nM
- TGI (DU-145 prostate): > 100 µM
- GI50 (IGROV1 ovarian): < 20.3 nM
- TGI (IGROV1 ovarian): > 100 µM
- GI50 (MDA-MB-231 breast): < 18.7 nM
- TGI (MDA-MB-231 breast): > 100 µM
- GI50 (NCI/ADR-RES ovarian): < 15.2 nM
- TGI (NCI/ADR-RES ovarian): 95.9 nM
- GI50 (SF-539 CNS): < 0.01 µM
- TGI (SF-539 CNS): 49.1 nM
- GI50 (SK-MEL-28 melanoma): 146 nM
- TGI (SK-MEL-28 melanoma): > 100 µM
- GI50 (RXF 393 renal): 43.1 nM
- TGI (RXF 393 renal): > 100 µM
- GI50 (ACHN renal): < 14.4 nM
- TGI (ACHN renal): > 100 µM
- GI50 (NCI-H460 lung): < 18.9 nM
- GI50 (HL-60(TB) leukemia): < 15.9 nM
- TGI (HL-60(TB) leukemia): 1830 nM
- GI50 (TK-10 renal): > 54.9 µM
- TGI (TK-10 renal): > 100 µM
- GI50 (MOLT-4 leukemia): < 20 nM
- TGI (MOLT-4 leukemia): > 100 µM
- GI50 (HCT-15 colon): < 16.9 nM
- TGI (HCT-15 colon): > 100 µM
- GI50 (UO-31 renal): < 23.6 nM
- TGI (UO-31 renal): > 100 µM
- GI50 (NCI-H226 lung): < 10 nM
- TGI (NCI-H226 lung): 75.3 nM
- GI50 (OVCAR-8 ovarian): < 0.0179 µM
- GI50 (K-562 leukemia): < 0.0143 µM
- TGI (K-562 leukemia): > 100 µM
- GI50 (BT-549 breast): < 14.4 nM
- TGI (BT-549 breast): 66.8 nM
- TGI (EKVX NSCLC): > 100 µM
- GI50 (HOP-92 NSCLC): 16.2 µM
- TGI (HOP-92 NSCLC): > 100 µM
- GI50 (SK-MEL-5 melanoma): < 14.9 nM
- TGI (SK-MEL-5 melanoma): 38 nM
- GI50 (SW-620 colon): < 19.2 nM
- TGI (SW-620 colon): > 100 µM
- GI50 (HCC-2998 colon): < 19.4 nM
- GI50 (SK-OV-3 ovarian): < 22.9 nM
- TGI (SK-OV-3 ovarian): > 51.3 µM
- GI50 (CAKI-1 renal): < 12.2 nM
- GI50 (RPMI-8226 leukemia): < 21.7 nM
- GI50 (KM12 colon): < 16.3 nM
- TGI (KM12 colon): > 100 µM
- GI50 (MALME-3M melanoma): 219 nM
- TGI (MALME-3M melanoma): > 100 µM
- GI50 (CCRF-CEM leukemia): < 0.0185 µM
- TGI (CCRF-CEM leukemia): > 100 µM
- GI50 (MDA-MB-435): < 10 nM
- TGI (MDA-MB-435): 24.8 nM
- GI50 (LOX IMVI melanoma): < 11.4 nM
- TGI (LOX IMVI melanoma): > 100 µM
- GI50 (SF-268 CNS): < 21.6 nM
- TGI (SF-268 CNS): > 100 µM
- GI50 (UACC-257 melanoma): > 100 µM
- TGI (UACC-257 melanoma): > 100 µM
- GI50 (UACC-62 melanoma): < 10 nM
- TGI (UACC-62 melanoma): > 100 µM
- GI50 (MCF7 breast): < 0.01 µM
- TGI (MCF7 breast): > 92 µM
- GI50 (PC-3 prostate): < 0.0197 µM
- TGI (PC-3 prostate): > 100 µM
- GI50 (T-47D breast): 33.1 µM
- TGI (T-47D breast): > 100 µM
- GI50 (U251 CNS): < 17.8 nM
- TGI (U251 CNS): > 100 µM
- GI50 (786-0 renal): < 19.8 nM
- TGI (786-0 renal): > 100 µM
- GI50 (M14 melanoma): < 17.1 nM
- TGI (M14 melanoma): > 100 µM
- GI50 (SNB-75 CNS): 26.2 nM
- TGI (SNB-75 CNS): > 100 µM
- GI50 (OVCAR-5 ovarian): < 0.0186 µM
- TGI (OVCAR-5 ovarian): > 100 µM
- GI50 (SN12C renal): < 19.3 nM
- TGI (SN12C renal): > 100 µM
- GI50 (OVCAR-3 ovarian): < 10 nM
- TGI (OVCAR-3 ovarian): 171 nM
- GI50 (SF-295 CNS): < 11.1 nM
- TGI (SF-295 CNS): > 100 µM
- GI50 (HS 578T breast): < 0.0226 µM
- TGI (HS 578T breast): > 100 µM
- GI50 (SNB-19 CNS): < 0.0241 µM
- TGI (SNB-19 CNS): > 100 µM
- GI50 (OVCAR-4 ovarian): 2.16 µM
- TGI (OVCAR-4 ovarian): > 100 µM
- GI50 (HT29 colon): < 10 nM
- GI50 (HOP-62 NSCLC): < 0.0201 µM
- TGI (HOP-62 NSCLC): > 100 µM
- GI50 (NCI-H522 lung): < 0.01 µM
- TGI (NCI-H522 lung): < 0.0172 µM

Compound: CCCCOc1ccc(S(=O)(=O)N2CCN(c3nccc(N4CCOCC4)n3)CC2)cc1
- GI50 (A549 NSCLC): 654 nM
- TGI (A549 NSCLC): > 100 µM
- GI50 (HCT-116 colon): 484 nM
- TGI (HCT-116 colon): > 100 µM
- GI50 (SR leukemia): 2770 nM
- TGI (SR leukemia): > 100 µM
- GI50 (DU-145 prostate): 524 nM
- TGI (DU-145 prostate): > 100 µM
- GI50 (NCI/ADR-RES ovarian): 2020 nM
- TGI (NCI/ADR-RES ovarian): > 100000 nM
- GI50 (SF-539 CNS): 4.09 µM
- TGI (SF-539 CNS): > 100000 nM
- GI50 (ACHN renal): 1920 nM
- TGI (ACHN renal): > 100 µM
- GI50 (NCI-H460 lung): 481 nM
- TGI (NCI-H460 lung): > 100 µM
- GI50 (HL-60(TB) leukemia): 476 nM
- TGI (HL-60(TB) leukemia): > 100000 nM
- GI50 (MOLT-4 leukemia): 1400 nM
- TGI (MOLT-4 leukemia): > 100 µM
- GI50 (HCT-15 colon): 1710 nM
- TGI (HCT-15 colon): > 100 µM
- GI50 (OVCAR-8 ovarian): 4.04 µM
- TGI (OVCAR-8 ovarian): > 100 µM
- GI50 (K-562 leukemia): 3.3 µM
- TGI (K-562 leukemia): > 100 µM
- GI50 (BT-549 breast): 2450 nM
- TGI (BT-549 breast): > 100000 nM
- GI50 (HOP-92 NSCLC): 1.8 µM
- TGI (HOP-92 NSCLC): 6.91 µM
- GI50 (HCC-2998 colon): 1840 nM
- TGI (HCC-2998 colon): > 100 µM
- GI50 (SK-OV-3 ovarian): 2780 nM
- TGI (SK-OV-3 ovarian): > 100 µM
- GI50 (CAKI-1 renal): 1760 nM
- TGI (CAKI-1 renal): > 100 µM
- GI50 (RPMI-8226 leukemia): 422 nM
- TGI (RPMI-8226 leukemia): 5.59 µM
- GI50 (KM12 colon): 1570 nM
- TGI (KM12 colon): > 100 µM
- GI50 (CCRF-CEM leukemia): 3.44 µM
- TGI (CCRF-CEM leukemia): > 100 µM
- GI50 (MDA-MB-435): 1500 nM
- TGI (MDA-MB-435): > 100000 nM
- GI50 (MCF7 breast): > 100 µM
- TGI (MCF7 breast): > 100 µM
- GI50 (PC-3 prostate): 3.15 µM
- TGI (PC-3 prostate): > 100 µM
- GI50 (786-0 renal): 2700 nM
- TGI (786-0 renal): > 100 µM
- GI50 (M14 melanoma): 2710 nM
- TGI (M14 melanoma): > 100 µM
- GI50 (SNB-75 CNS): 1770 nM
- TGI (SNB-75 CNS): 4.39 µM
- GI50 (OVCAR-5 ovarian): > 100 µM
- TGI (OVCAR-5 ovarian): > 100 µM
- GI50 (HS 578T breast): 3.02 µM
- TGI (HS 578T breast): > 100 µM
- GI50 (SNB-19 CNS): 6.65 µM
- TGI (SNB-19 CNS): > 100 µM
- GI50 (OVCAR-4 ovarian): 4.73 µM
- TGI (OVCAR-4 ovarian): > 100 µM
- GI50 (HT29 colon): 538 nM
- TGI (HT29 colon): > 100 µM
- GI50 (HOP-62 NSCLC): 16.3 µM
- TGI (HOP-62 NSCLC): > 100 µM
- GI50 (NCI-H522 lung): > 100 µM
- TGI (NCI-H522 lung): > 100 µM
